Consider five compounds from PMC9138567, “Strategy to Enhance Anticancer Activity and Induced Immunogenic Cell Death of Antimicrobial Peptides by Using Non-Nature Amino Acid Substitutions” (Biomedicines, 2022).

Non-standard residues stand in square brackets, D forms with d. Residues, ends and D or L forms follow the SMILES beside them. Bip = N[C@@H](Cc1ccc(-c2ccccc2)cc1)C(=O)O; Dip = N[C@H](C(=O)O)C(c1ccccc1)c1ccccc1; 2Nal = N[C@@H](Cc1ccc2ccccc2c1)C(=O)O

In series [1] the test system is PC 9 cells. Put plainly: Extracellular ATP release, luciferin-luciferase assay. The format is cell-based. To be noted: for treatment time of highest ATP release (RLU): PC 9, 2× IC50, time points 0.5, 1, 1.5, 2 h, supernatant. The procedure: PC 9 cells were seeded at the density of 10,000 cells/ well in the 96-well plate and allowed to adhere for 48 h. Cells were treated with Nal-P-113, Bip-P-113, and Dip-P-113 at 2× IC50 for 0.5, 1, 1.5, and 2 h. Untreated cells were served as the control group. After being treated for different time points (0.5, 1, 1.5, and 2 h), the supernatant of cells was analyzed using the ENLITEN ATP luciferase assay kit (Promega, Madison, WI, USA). The level of extracellular ATP chemiluminescence was measured using the Wallac VICTOR 3 Multilabel plate reader (PerkinElmer, Shelton, CT, USA).

Series [2] relates to human fibroblasts (HFW). To be noted: MTT, 100 μg/mL; cited from earlier work. The procedure: The toxicity of the peptides was determined previously by measuring cell death using MTT assays against human fibroblasts (HFW).
Series [3] has as its system OECM-1 gingival epidermoid carcinoma cells. It is filed as cell-based. To be noted: 24 h. The protocol:
(§1) The three non-small cell lung cancer cell lines, H1975, PC 9, A549, and oral squamous cell carcinoma cell line OECM-1 were cultured in RPMI 1640 medium supplemented with 10% fetal bovine serum, 2 mM L-glutamine and 1% penicillin/ streptomycin. The oral cancer cell line C9 was cultured in DMEM with 10% fetal bovine serum, 2 mM L-glutamine, and 1% penicillin/ streptomycin.
(§2) The MTT assay was applied for cell viability test according to previous protocol. […] Medium treated with PBS served as control group. […] After medium was removed, 100 µL DMSO was added to dissolve the formazan crystal. Absorbance was measured at 570 nm using a microplate reader (TECAN Sunrise ELISA Reader).

In series [4] the test system is C9 oral squamous cell carcinoma cells. The format is cell-based. To be noted: 24 h. The procedure: as §1, §2
For series [5], the system named is H1975 non-small cell lung carcinoma cells. The format is cell-based. To be noted: 24 h. The protocol: as §1, §2
Series [6] relates to A549 adenocarcinomic alveolar basal epithelial cells. The format is cell-based. To be noted: 24 h. The protocol: as §1, §2
For series [7], the system named is PC 9 non-small cell lung cancer cells with EGFR mutation. It is filed as cell-based. To be noted: 24 h. The procedure: as §1, §2
Series [8] deals with PC 9 cells. The experiment in a line: Cytochrome c release, ELISA of supernatant. It is filed as cell-based. To be noted: PC 9, 2× IC50, supernatant ELISA; for cytochrome c release, maximal value: highest over 0.5-4 h time course (Bip-P-113: at 4 h); for cytochrome c release, minimum value: lowest over 0.5-4 h time course (Bip-P-113: at 30 min). The procedure:
PC 9 cells were seeded with 10,000 cells/well in the 96-well plate and allowed to adhere for 48 h and then treated with Nal-P-113, Bip-P-113, and Dip-P-113 at 2× IC50 for 0.5, 1, 1.5, 2, and 4 h. Untreated cells were used as a control group. Supernatants were collected after centrifugation at 16,000× g for 10 min. Samples were analyzed using the Quantikine ELISA Rat/ Mouse Cytochrome c Immunoassay (R & D Systems, Minneapolis, MN, USA) according to the manufacturer’s protocol. The optical density at the wavelength of 450 nm of each well was determined using the microplate reader (TECAN Sunrise ELISA Reader).

Series [9] relates to PC 9 cell line. The format is cell-based. To be noted: for cell survival rate: 4 h; for cells killed: PC 9, 2× IC50, within 2 h, MTT. The procedure: A total of 5000 cells were incubated with Nal-P-113, Bip-P-113, and Dip-P-113 at 2× IC50 for 0.5, 1, 2, 3, and 4 h. After treatment, the MTT solution was further incubated for 3 h. Absorbance was measured at 570 nm on the microplate reader (TECAN Sunrise ELISA Reader) after the dissolution of the formazan crystal in 100 µL DMSO solution. The cell survival rate was calculated as aforementioned for cell viability assay.

The test system of series [10] is PC 9 cells. The experiment in a line: Extracellular HMGB1 release, Western blot. The format is cell-based. The procedure:
The PC 9 cells were seeded at the density of 25,000 cells/well and left to adhere for 48 h. Cells were treated with Nal-P-113, Bip-P-113, and Dip-P-113 at 2× IC50 for 1, 2, and 4 h. After treatment of the peptides, the supernatant and lysate of the cells were collected separately for further experiments. The supernatant was collected after centrifugation at the speed of 1400× g. The cell lysate was washed twice using PBS before the sonication of the pellet using a bio-disruptor, and the disrupted pellet was centrifuged again for 10 min under 14,000 rpm at 4 °C. The concentration of the samples was quantified using the Bradford assay. Both supernatants and cell lysate were loaded and run on the sodium dodecyl sulfate polyacrylamide gel electrophoresis (SDS-PAGE) and were then electro transferred to a polyvinylidene difluoride (PVDF) membrane (Merck-Millipore, Burlington, MA, USA) in an electro-blot system, 30 V, 400 mA, for 75 min. The membrane was incubated in blocking buffer (5% skim milk, TBST buffer) for 1 h at room temperature and washed in TBST buffer three times. The anti-HMGB1 antibody (Abcam, Cambridge, UK, ab18256) was incubated overnight at 4 °C in the dilution ratio of 1:1000. The secondary antibody of a rabbit (diluted in 1:10,000) was incubated following rinsing with PBST three times for 2 h the next day at room temperature before being developed using a luminol reagent and imaged by a detected system (ImageQuant LAS 4000 mini).

In series [11] the test system is PC 9 cells. Put plainly: Propidium iodide/Hoechst 33342 staining (plasma membrane integrity). It is filed as cell-based. To be noted: PC 9, 2× IC50, 120 min, serum-free RPMI, fluorescence microscopy. The protocol:
To examine the membranolytic activities of peptides, the PI/Hoechst 33342 staining was performed in this study. The PI dye was used to stain damaged/dead cells, and Hoechst 33342 was used to specifically stain the nuclei of living cells. PC 9 cells were seeded at 20,000 cells/well in a RPMI medium and allowed to adhere for 48 h. Then, the cells were replaced with serum-free RPMI medium and then treated with 2× IC50 peptides at 37 °C for 120 min. Then, the PI and Hoechst 33342 were added at a final concentration of 1 μg/mL for 20 min. PC 9 cells were observed using the inverted fluorescent microscope Zeiss equipped with a 40× oil objective lens (Carl Zeiss, Jena, Germany). The experiments were repeated three times independently.

Series [12] has as its system PC 9 cells. Put plainly: JC-1 staining (mitochondrial membrane potential). It is filed as cell-based. To be noted: PC 9, 2× IC50, 120 min, serum-free RPMI, fluorescence microscopy. The protocol: PC 9 cells were seeded at 40,000 cells/well in a RPMI medium and allowed to adhere for 24 h. […] The JC-1 dye was added at a final concentration of 1 μg/mL for 45 min. PC 9 cells were observed using the inverted fluorescent microscope Zeiss equipped with a 20× oil objective lens (Carl Zeiss, Jena, Germany). The experiments were repeated three times independently.

As for `CC(=O)N[C@@H](C)C(=O)N[C@@H](CCCCN)C(=O)N[C@@H](CCCNC(=N)N)C(=O)N[C@@H](Cc1ccc(-c2ccccc2)cc1)C(=O)N[C@@H](Cc1ccc(-c2ccccc2)cc1)C(=O)NCC(=O)N[C@@H](Cc1ccc(O)cc1)C(=O)N[C@@H](CCCCN)C(=O)N[C@@H](CCCNC(=N)N)C(=O)N[C@@H](CCCCN)C(=O)N[C@@H](Cc1ccccc1)C(=O)N[C@@H](Cc1ccc(-c2ccccc2)cc1)C(N)=O` [Bip-P-113] (Ac-AKR[Bip][Bip]GYKRKF[Bip]-NH2), the “ATP release compared among the peptides” value in [1] (PC 9, 2× IC50, at the 0.5 h peak) is reported as “lowest ATP release”. The “treatment time of highest ATP release (RLU)” value (shortened to “treatment time”) in series [1] was 0.5 h. The cell death result in series [2] is listed as “less than 10%”. Moreover, the IC50 – broadly, the midpoint of a concentration-inhibition curve – in [3] worked out at 42.5 µM; in series [4], 42 µM; in series [5], 63.6 µM; in series [6], 48.4 µM; in series [7], 64.2 µM. Also, the “cytochrome c release, maximal value” in series [8] is about 15 ng/mL. Further, in [8], the “cytochrome c release, minimum value” was 3 ng/mL. Further, in series [9], the cell survival rate entry was “below 50%”. The cells killed entry in [9] is “more than 80%”. The “HMGB1 protein in supernatant” value in series [10] (PC 9, 2× IC50, 1 h treatment) was “No HMGB1 protein was observed”; in series [10] (PC 9, 2× IC50, after 2 and 4 h), “can hardly be detected”. For the same compound, in series [11], the “plasma membrane integrity (PI entry)” value is “cause damage to the plasma membrane integrity”. Moreover, the “mitochondrial membrane potential (JC-1)” value in series [12] is on record as “induced changes of the mitochondrial membrane potential”.
Take `CC(=O)N[C@@H](C)C(=O)N[C@@H](CCCCN)C(=O)N[C@@H](CCCNC(=N)N)C(=O)N[C@H](C(=O)N[C@H](C(=O)NCC(=O)N[C@@H](Cc1ccc(O)cc1)C(=O)N[C@@H](CCCCN)C(=O)N[C@@H](CCCNC(=N)N)C(=O)N[C@@H](CCCCN)C(=O)N[C@@H](Cc1ccccc1)C(=O)N[C@H](C(N)=O)C(c1ccccc1)c1ccccc1)C(c1ccccc1)c1ccccc1)C(c1ccccc1)c1ccccc1` [Dip-P-113] (Ac-AKR[Dip][Dip]GYKRKF[Dip]-NH2): in [1], the “treatment time” value amounted to 0.5 h. Moreover, the cell death result in [2] is given as “less than 10%”. Also, the IC50 in series [3] is 62.9 µM; in series [4] it was 67.9 µM; in series [6], 96.4 µM; in series [7], 71.5 µM. In addition, in series [8], the “cytochrome c release, maximal value” is on record as “around 3.5 ng/mL”. For the same compound, the “cytochrome c release, minimum value” in series [8] is “lower than 2 ng/mL”. The cell survival rate entry in series [9] is “around 60%”. Besides, the “HMGB1 protein in supernatant” value was “No HMGB1 protein was observed” in [10] (PC 9, 2× IC50, 1 h treatment); “can clearly be seen” in series [10] (PC 9, 2× IC50, after 2 and 4 h). Also, the “plasma membrane integrity (PI entry)” value in [11] is reported as “cause damage to the plasma membrane integrity”. For the same compound, in [12], the “mitochondrial membrane potential (JC-1)” value is “induced changes of the mitochondrial membrane potential”.
Consider `CC(=O)N[C@@H](C)C(=O)N[C@@H](CCCCN)C(=O)N[C@@H](CCCNC(=N)N)C(=O)N[C@@H](Cc1ccc2ccccc2c1)C(=O)N[C@@H](Cc1ccc2ccccc2c1)C(=O)NCC(=O)N[C@@H](Cc1ccc(O)cc1)C(=O)N[C@@H](CCCCN)C(=O)N[C@@H](CCCNC(=N)N)C(=O)N[C@@H](CCCCN)C(=O)N[C@@H](Cc1ccccc1)C(=O)N[C@@H](Cc1ccc2ccccc2c1)C(N)=O` [Nal-P-113] (Ac-AKR[2Nal][2Nal]GYKRKF[2Nal]-NH2), for which the “treatment time” value in series [1] is 0.5 h. The cell death entry in [2] was “less than 10%”. For the same compound, the IC50 is 25.9 µM in series [3]; 21.4 µM in series [4]; 58.3 µM in series [5]; 38.2 µM in series [6]; 28.1 µM in [7]. Further, in series [8], the “cytochrome c release, maximal value” is “around 3.5 ng/mL”. Besides, the “cytochrome c release, minimum value” in [8] is reported as “lower than 2 ng/mL”. Moreover, the cell survival rate entry in series [9] was “below 50%”. Also, the cells killed result in series [9] was “more than 80%”. For the same compound, the “HMGB1 protein in supernatant” value in series [10] (PC 9, 2× IC50, 1 h treatment) is on record as “No HMGB1 protein was observed”; in series [10] (PC 9, 2× IC50, after 2 and 4 h) it was “can clearly be seen”. In addition, the “plasma membrane integrity (PI entry)” value in series [11] is “cause damage to the plasma membrane integrity”. For the same compound, in series [12], the “mitochondrial membrane potential (JC-1)” value is reported as “induced changes of the mitochondrial membrane potential”.
On to `CC(=O)N[C@@H](C)C(=O)N[C@@H](CCCCN)C(=O)N[C@@H](CCCNC(=N)N)C(=O)N[C@@H](Cc1c[nH]cn1)C(=O)N[C@@H](Cc1c[nH]cn1)C(=O)NCC(=O)N[C@@H](Cc1ccc(O)cc1)C(=O)N[C@@H](CCCCN)C(=O)N[C@@H](CCCNC(=N)N)C(=O)N[C@@H](CCCCN)C(=O)N[C@@H](Cc1ccccc1)C(=O)N[C@@H](Cc1c[nH]cn1)C(N)=O` [P-113, reference compound] (Ac-AKRHHGYKRKFH-NH2; N-terminus and C-terminus assumed), for which the IC50 in series [7] was over 200 µM.
In the case of `CC(=O)N[C@@H](C)C(=O)N[C@@H](CCCCN)C(=O)N[C@@H](CCCNC(=N)N)C(=O)N[C@@H](Cc1ccccc1)C(=O)N[C@@H](Cc1ccccc1)C(=O)NCC(=O)N[C@@H](Cc1ccc(O)cc1)C(=O)N[C@@H](CCCCN)C(=O)N[C@@H](CCCNC(=N)N)C(=O)N[C@@H](CCCCN)C(=O)N[C@@H](Cc1ccccc1)C(=O)N[C@@H](Cc1ccccc1)C(N)=O` [Phe-P-113] (Ac-AKRFFGYKRKFF-NH2), the IC50 turned out to be 120 µM in series [3], 80.5 µM in [4], 99.1 µM in series [6] and 173 µM in [7].
